Converted amounts (≈) assume the structure as drawn. “Also recorded” adds a separate entry of the source.
Legend:
MRSA USA800 = test: MIC broth microdilution, MRSA USA800; type: cell-based; conditions: Staphylococcus aureus, Table 2, read-out: Minimum Inhibitory Concentration
Protocol: (§1) Determination of minimum inhibitory concentration (MIC). The MICs of the lead thiazole compound (compound 1a) and nine derivatives tested against all 18 MRSA strains were determined, in triplicate samples, using the broth microdilution method in accordance with the recommendations contained in the CLSI guidelines.

VISA LIM 3 (NRS37) = test: MIC/MBC broth microdilution, NRS37 (VISA LIM 3); type: cell-based; conditions: Staphylococcus aureus; Table 2; VISA LIM 3; read-out: Minimum Inhibitory Concentration
Protocol: as §1

MRSA USA500 (NRS385) = test: MIC/MBC broth microdilution, NRS385 (USA500); type: cell-based; conditions: Staphylococcus aureus; Table 2; MRSA USA500; read-out: Minimum Inhibitory Concentration
Protocol: as §1

MRSA NRS384 (USA300) = test: MIC/MBC broth microdilution, NRS384 (USA300); type: cell-based; conditions: Staphylococcus aureus; Table 2; MRSA USA300; read-out: Minimum Inhibitory Concentration
Protocol: as §1

MRSA USA400 (NRS123) = test: MIC/MBC broth microdilution, NRS123 (USA400); type: cell-based; conditions: Staphylococcus aureus; Table 2; MRSA USA400; read-out: Minimum Inhibitory Concentration
Protocol: as §1

[1] = tested on: murine macrophage cells (J774.A1); test: In vitro cytotoxicity analysis, MTS assay; type: cell-based; conditions: 16 μM, 24 hours
Protocol: In vitro cytotoxicity analysis: Compounds were assayed at concentrations of 2 μM, 4 μM, 8 μM, and 16 μM against a macrophage cell line (J774.A1) to determine the potential toxic effect in vitro. Murine macrophage cells were cultured in Dulbeco's Modified Eagle Medium (Sigma-Aldrich, St. Louis, Mo., USA) with 10% Fetal Bovine Serum (USA Scientific, Inc.) at 37° C. with 5% CO2. Controls received DMSO alone at a concentration equal to that in drug-treated cell samples. The cells were incubated with the compounds in a 96-Well Plate at 37° C. and 5.0% CO2 for 24 hours prior to addition of the assay reagent MTS 3-(4,5-dimethylthiazol-2-yl)-5-(3-carboxymethoxyphenyl)-2-(4-sulfophenyl)-2H-tetrazolium) (Promega, Madison, Wis., USA). The reagent measures the succinate dehydrogenase mitochondrial activity as an indicator of cell viability and proliferation. Corrected absorbance readings (actual absorbance readings for each treatment subtracted from background absorbance) were taken using a kinetic ELISA microplate reader (Molecular Devices, Sunnyvale, Calif., USA). The quantity of viable cells after treatment with each compound was expressed as a percentage of the control, DMSO.

MRSA USA200 = test: MIC broth microdilution, MRSA USA200; type: cell-based; conditions: Staphylococcus aureus; Table 2; MRSA USA200; read-out: Minimum Inhibitory Concentration
Protocol: as §1

[2] = tested on: MRSA ATCC 700699 (NRS1, VISA); test: MIC/MBC broth microdilution, NRS1 (ATCC 700699); type: cell-based; conditions: Staphylococcus aureus; Table 2; MRSA ATCC 700699; read-out: Minimum Inhibitory Concentration
Protocol: as §1

NRS119 = test: MIC/MBC broth microdilution, NRS119; type: cell-based; conditions: Staphylococcus aureus; Table 2; NRS119; read-out: Minimum Inhibitory Concentration
Protocol: as §1

VISA HIP07256 (NRS19) = test: MIC/MBC broth microdilution, NRS19 (VISA HIP07256); type: cell-based; conditions: Staphylococcus aureus; Table 2; VISA HIP07256; read-out: Minimum Inhibitory Concentration
Protocol: as §1

MRSA USA100 = test: MIC broth microdilution, MRSA USA100; type: cell-based; conditions: Staphylococcus aureus; Table 2; MRSA USA100; read-out: Minimum Inhibitory Concentration
Protocol: as §1

MRSA USA700 = test: MIC broth microdilution, MRSA USA700; type: cell-based; conditions: Staphylococcus aureus, Table 2, read-out: Minimum Inhibitory Concentration
Protocol: as §1

MRSA (USA300) = test: Time-kill assay; type: cell-based, Staphylococcus aureus; conditions: 3.0×MIC
Protocol: Time-kill assay. […] Viable CFU/mL was determined by serial dilution and plating on trypticase soy agar (TSA) (Becton, Dickinson and Company, Sparks, Md., USA) plates after 0, 2, 4, 6, 8, 10, and 12 hours of incubation at 37° C. to identify the time required to reduce the bacterial cell count by 3-log10.

NRS108 = test: MIC broth microdilution, NRS108; type: cell-based; conditions: Staphylococcus aureus, Table 2, read-out: Minimum Inhibitory Concentration
Protocol: as §1

NRS194 = test: MIC/MBC broth microdilution, NRS194; type: cell-based; conditions: Staphylococcus aureus, Table 2, read-out: Minimum Inhibitory Concentration
Protocol: as §1

NRS107 = test: MIC/MBC broth microdilution, NRS107; type: cell-based; conditions: Staphylococcus aureus, Table 2, read-out: Minimum Inhibitory Concentration
Protocol: as §1

MRSA ATCC 43300 [3] = test: MIC/MBC broth microdilution, MRSA ATCC 43300; type: cell-based, Staphylococcus aureus; conditions: Staphylococcus aureus; Table 2; MRSA ATCC 43300; read-out: Minimum Inhibitory Concentration
Protocol: as §1

VRSA (VRS10) = test: MIC/MBC broth microdilution, VRSA (VRS10); type: cell-based, Staphylococcus aureus; conditions: VRSA; for MIC: Staphylococcus aureus, Table 2, read-out: Minimum Inhibitory Concentration
Protocol: as §1

[4] = tested on: 18 different strains of MRSA and VRSA; test: MIC broth microdilution, panel of 18 MRSA and VRSA strains (summary statements); type: cell-based, Staphylococcus aureus; conditions: relative to lead compound 1a; number of strains as stated in the sentence
Protocol: as §1

MRSA ATCC 43300 [5] = test: Flow cytometry with LIVE/DEAD Fixable Dead Cell Stain; type: cell-based, Staphylococcus aureus; conditions: compound 1a at 4.0×MIC; lysostaphin positive control; 10 minutes at 37° C.
Protocol: Flow cytometry and LIVE/DEAD® Fixable Dead Cell Stain: The action of the lead compound on cell membrane permeability of MRSA was assayed using the LIVE/DEAD® Fixable Dead Cell Stain Kit (Invitrogen, Eugene, Oreg., USA) according to the manufacturer's instructions. […] Post-treatment cells were fixed with 3.7% formaldehyde; the cells were then screened with a Beckman Coulter FC500 flow cytometer.

Compound	MIC (MRSA USA800) [µg/mL]	MIC (VISA LIM 3 (NRS37)) [µg/mL]	MIC (MRSA USA500 (NRS385)) [µg/mL]	MIC (MRSA NRS384 (USA300)) [µg/mL]	MIC (MRSA USA400 (NRS123)) [µg/mL]	toxicity toward murine macrophage cells [1]	MIC (MRSA USA200) [µg/mL]	MIC [2] [µg/mL]	MIC (NRS119) [µg/mL]	MIC (VISA HIP07256 (NRS19)) [µg/mL]	MIC (MRSA USA100) [µg/mL]	MIC (MRSA USA700) [µg/mL]	MIC (NRS108) [µg/mL]	MIC (NRS194) [µg/mL]	MIC (NRS107) [µg/mL]	MIC (VRSA (VRS10)) [µg/mL]	improvement in the MIC value relative to the lead compound [4]	also measured
CCCc1ccc(-c2nc(C)c(/C(C)=N/NC(=N)N)s2)cc1 [Compound 1c, 2-{1-[4-Methyl-2-(4-propylphenyl)thiazol-5-yl]ethylidene}hydrazinecarboximidamide]	2.3 (≈ 7.29 µM)	1.2 (≈ 3.8 µM)	2.3 (≈ 7.29 µM)	1.2 (≈ 3.8 µM)	1.2 (≈ 3.8 µM)	exhibited toxicity; also recorded: toxic	2.3 (≈ 7.29 µM)	2.3 (≈ 7.29 µM)	2.3 (≈ 7.29 µM)	2.3 (≈ 7.29 µM)	1.2 (≈ 3.8 µM)	–	–	–	–	–	–	–
CCCCCc1ccc(-c2nc(C)c(/C(C)=N/NC(=N)N)s2)cc1 [Compound 1d]	0.5 (≈ 1.46 µM)	0.5 (≈ 1.46 µM)	1.1 (≈ 3.2 µM)	–	–	–	–	0.5 (≈ 1.46 µM)	1.1 (≈ 3.2 µM)	–	–	1.1 (≈ 3.2 µM)	1.1 (≈ 3.2 µM)	1.1 (≈ 3.2 µM)	0.5 (≈ 1.46 µM)	–	–	bactericidal effect in time-kill assay (MRSA (USA300); 12 hour incubation at 37° C.): bactericidal; time to eliminate MRSA completely (reduce CFU to zero) (MRSA (USA300); MRSA (USA300)): within two hours; MIC (MRSA ATCC 43300 [3]): 0.8 µg/mL (≈ 2.33 µM)
C/C(=N\NC(=N)N)c1sc(-c2ccc(C(C)(C)C)cc2)nc1C [Compound 1g, 2-{1-[2-(4-(tert-Butyl)phenyl)-4-methylthiazol-5-yl]ethylidene}hydrazinecarboximid-amide]	1 (≈ 3.04 µM)	–	1 (≈ 3.04 µM)	1 (≈ 3.04 µM)	–	exhibited toxicity	1.9 (≈ 5.77 µM)	1.9 (≈ 5.77 µM)	–	1.9 (≈ 5.77 µM)	1 (≈ 3.04 µM)	–	–	1.9 (≈ 5.77 µM)	1 (≈ 3.04 µM)	1 (≈ 3.04 µM)	nearly two- to five-fold enhancement	–
C/C(=N\NC(=N)N)c1sc(-c2ccc3ccccc3c2)nc1C [Compound 1h, 2-{1-[4-Methyl-2-(naphthalen-2-yl)thiazol-5-yl]ethylidene}hydrazinecarboximid-amide]	–	–	1.9 (≈ 5.87 µM)	–	–	exhibited toxicity	1.9 (≈ 5.87 µM)	3.8 (≈ 11.7 µM)	–	1.9 (≈ 5.87 µM)	–	1.9 (≈ 5.87 µM)	1.9 (≈ 5.87 µM)	1.9 (≈ 5.87 µM)	1.9 (≈ 5.87 µM)	0.5 (≈ 1.55 µM)	–	reduction in MIC compared to 1a against VRSA (VRSA (VRS10)): near three-fold reduction
C/C(=N\NC(=N)N)c1sc(-c2ccc(C3=CCCCC3)cc2)nc1C [Compound 7, 2-{1-[2-(4-(1-Cyclohexenyl)phenyl)-4-methylthiazol-5-yl]ethylidene}hydrazine-carboximidamide]	0.6 (≈ 1.7 µM)	0.6 (≈ 1.7 µM)	1.2 (≈ 3.39 µM)	1.2 (≈ 3.39 µM)	0.6 (≈ 1.7 µM)	none were observed to be toxic	1.2 (≈ 3.39 µM)	0.6 (≈ 1.7 µM)	0.6 (≈ 1.7 µM)	0.6 (≈ 1.7 µM)	1.2 (≈ 3.39 µM)	–	2.3 (≈ 6.51 µM)	0.6 (≈ 1.7 µM)	0.6 (≈ 1.7 µM)	1.3 (≈ 3.68 µM)	two- to four-fold improvement	–
lysostaphin: positive control; disrupts the cross-linking of the pentaglycin bridges in the cell wall of staphylococci [reference compound]	–	–	–	–	–	–	–	–	–	–	–	–	–	–	–	–	–	cells stained with the dye (MRSA ATCC 43300 [5]): 45%

From patent US9353072B2, “Antimicrobial substituted thiazoles and methods of use” (Purdue Research Foundation, priority 2012, dated 2016)
